PubChem BioAssay (NCI)
“And” between values parts separate entries of the source, which are not always exact repeats. Equal entries are not always repeated.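 Results reflect a 48-hour exposure of cells in 96-well plates to compound at five concentrations. Abbreviation: GI50, concentration required for 50% inhibition of growth. The concentration for full growth arrest is given as TGI.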

Legend:
Test in all cases: NCI tumour cell line growth inhibition, 48 h
[1] = system: PC-3 prostate
[2] = system: MDA-MB-231 breast
[3] = system: NCI/ADR-RES ovarian
[4] = system: HCT-15 colon
[5] = system: HL-60(TB) leukemia
[6] = system: HS 578T breast
[7] = system: NCI-H522 lung
[8] = system: RXF 393 renal
[9] = system: NCI-H226 lung
[10] = system: A498 renal

| SMILES | GI50 [1] | TGI [1] | GI50 [2] | TGI [2] | GI50 [3] | TGI [3] | GI50 [4] | TGI [4] | GI50 [5] | TGI [5] | GI50 [6] | TGI [6] | GI50 [7] | TGI [7] | GI50 [8] | TGI [8] | TGI [9] | TGI [10] | GI50 [9] | GI50 [10] |
| --- | --- | --- | --- | --- | --- | --- | --- | --- | --- | --- | --- | --- | --- | --- | --- | --- | --- | --- | --- | --- |
| COc1ccc(Cn2c(N)c(S(=O)(=O)c3ccc(Cl)cc3)c3nc(C#N)c(C#N)nc32)cc1 | 33.5 µM | > 50 µM | 3.1 µM | 20.9 µM | 1.15 µM | 6 µM | > 50 µM | > 50 µM | > 50 µM | > 50 µM | 14.6 µM | > 50 µM | 5.82 µM | > 50 µM | 1.45 µM | 5.37 µM |  |  |  |  |
| C=COC(=O)N[C@H]1CCc2cc(OC)c(OC)c(OC)c2-c2ccc(SC)c(=O)cc21 |  | > 100 µM |  | 1.88 µM |  |  |  | > 100 µM |  | < 0.01 µM |  | > 4.64 µM |  | < 0.01 µM |  | 3.14 µM | 0.793 µM | 0.395 µM |  |  |
| C[Si](C)(C)/C(Br)=C\CCN1C(=O)CCC1=O |  |  |  |  |  |  |  | > 100 µM |  | > 100 µM |  |  |  |  |  | > 100 µM | > 100 µM | > 100 µM |  |  |
| Oc1ccc2ccccc2c1N=Nc1ccc(Br)cc1 |  | > 100 µM |  | > 100 µM |  | > 100 µM |  | > 100 µM |  | > 100 µM |  | > 100 µM |  | > 100 µM |  | > 100 µM | > 100 µM |  |  |  |
| CC(C)(C)[Si](C)(C)OC1C(=O)C[C@H]2CCCC[C@@H]12 (stereo partly specified) |  |  |  |  |  |  |  | > 100 µM |  | > 100 µM |  |  |  |  |  | > 100 µM |  | > 100 µM |  |  |
| Oc1ccc(Nc2c3ccccc3nc3occ(Cl)c23)cc1 | 2.71 µM | 20.3 µM | 2.43 µM | 7.39 µM | 2.69 µM | 18.2 µM | 4.77 µM | > 100 µM |  |  | 5.62 µM | > 100 µM | 2.37 µM | 8.32 µM | 3.83 µM | 70.3 µM | 13.5 µM |  | 3.12 µM |  |
| O=[N+]([O-])c1ccc(CI)cc1 |  |  | 1.23 µM | 4.08 µM | 3.15 µM | 11.2 µM | 1.17 µM | 3.76 µM | 2.24 µM | 5.22 µM | 3.53 µM | 24.2 µM | 1.41 µM | 3.02 µM | 2.44 µM | 8.74 µM | 23.5 µM | 9.56 µM | 5.66 µM | 2.29 µM |
| COC(=O)C1=C(C(=O)OC)C2=S(SC3=C2CCCC3)S1 (stereo unspecified) |  |  |  |  |  |  |  | 46.6 µM |  | 30.9 µM |  |  |  | 11.3 µM |  | 32.3 µM |  |  |  |  |
| [N-]=[N+]=N/C1=C/CCCCC(=O)C1 |  |  |  |  |  |  |  | > 100 µM |  | > 100 µM |  |  |  | > 100 µM |  | > 100 µM |  |  |  |  |
| COc1ccc2c(c1)c[n+](C)c1c3cc(OC)c(OC)cc3ccc21 | 1.36 µM and 4.32 µM | 3.84 µM and 16 µM |  | 2.83 µM and 3.07 µM |  | > 100 µM |  | 30 µM and > 74.1 µM | 0.467 µM and 1.85 µM | 3.48 µM and 16.9 µM |  |  |  | 2.33 µM and 4.34 µM | 1.5 µM and 5.8 µM | 2.98 µM and 13.6 µM | 14.8 µM and 25.9 µM | 6.85 µM and 57.7 µM | 4.22 µM and 12.1 µM | 2.02 µM and 19.7 µM |
| Cc1nc2cc(Nc3nc(Nc4ccc(F)cc4)nc(-c4cccs4)n3)ccc2n1Cc1ccccc1 | 2.71 µM | 52.2 µM | 3.48 µM | 16.2 µM | 3.66 µM | 32.1 µM | 3.11 µM | 16.3 µM | 2.46 µM | 6.5 µM | 3.81 µM | > 100 µM | 2.66 µM | 9.16 µM |  |  | 36.5 µM | 73.3 µM | 8.23 µM | 5.41 µM |
| O=C1c2cc3c(cc2-c2c1c1cc(Cl)c(Cl)cc1c(=O)n2C[C@H](O)CO)OCO3 |  |  | 0.0796 µM | 1.66 µM | < 0.01 µM | 0.0184 µM | 0.0127 µM | 14.3 µM | < 0.01 µM | 10.5 µM | 0.291 µM | 32.9 µM | < 0.01 µM | 0.122 µM | < 0.01 µM | 0.0378 µM | 0.0248 µM | 0.032 µM | < 0.01 µM | < 0.01 µM |
| O=C1CCC(=O)c2c1c(O)c1ccncc1c2O |  |  |  |  |  |  |  | 26.3 µM |  | 26.4 µM |  |  |  | 24.5 µM |  | 35.6 µM | 45.3 µM |  |  |  |
| CC(=O)N1CCC(=O)/C(=C/c2ccccc2)C1 |  |  |  |  |  |  |  | 48.2 µM |  |  |  |  |  |  |  | 67.6 µM | > 100 µM | > 100 µM |  |  |
| COC12OCCN(C)C1=CC(=O)C1=NNC(C)C12 (stereo unspecified) |  |  |  |  |  |  |  | > 100 µM |  | > 100 µM |  |  |  | > 100 µM |  | > 100 µM | > 100 µM | > 100 µM |  |  |
| CCOC(=O)c1c(-c2ccc(OC)cc2)c(C#N)c2c(C#N)c(N)nn2c1N |  |  | 3.63 µM | 23.2 µM | 3.57 µM | > 100 µM | 2.95 µM | > 100 µM | 3.33 µM | > 100 µM | 2.96 µM | 27.6 µM | 2.55 µM | 12.5 µM | 2.25 µM | 11.5 µM | > 100 µM | 7.88 µM | 3.62 µM | 1.73 µM |
| CSc1ccccc1C#C/C=C\C#Cc1ccccc1N | 14.5 µM | > 100 µM | 4.69 µM | 22.2 µM | 4.05 µM | 16 µM | 6.65 µM | 32.5 µM | 3.97 µM | > 100 µM |  |  | 0.527 µM | 32.4 µM | 24.5 µM | > 100 µM | 52 µM | 14.5 µM | 13.4 µM | 4.18 µM |
| C[C@H]1CN[C@@H]2[C@@H](C)[C@H]3[C@@H](C[C@H]4[C@@H]5CC[C@H]6C[C@@H](N)CC[C@]6(C)[C@H]5CC[C@]34C)O[C@@]2(O)C1 |  | 13.9 µM |  | 4.3 µM |  | 5.66 µM |  | 4.5 µM |  | 4.08 µM |  | 6.55 µM |  | 5.91 µM |  |  | 5.77 µM | 1.44 µM |  |  |
| CN(C)CCC(=O)C(=Cc1ccc(O)cc1)C(=O)CCN(C)C |  |  | > 100 µM | > 100 µM | > 100 µM | > 100 µM | 52.5 µM | > 100 µM | > 100 µM | > 100 µM | > 100 µM | > 100 µM | 16.4 µM | 38.9 µM | > 100 µM | > 100 µM | > 100 µM |  | > 100 µM |  |
